Measurements reported in ChEMBL document CHEMBL5316324, “Discovery, Characterization, and Engineering of LvIC, an α4/4-Conotoxin That Selectively Blocks Rat α6/α3β4 Nicotinic Acetylcholine Receptors” (J Med Chem, 2023).
Peptide text beside a SMILES is read from it.

What was measured:
[1] = target: Neuronal acetylcholine receptor; alpha3/beta4 (Rattus norvegicus) (UniProt P04757+P12392); test: Potency index, ratio of [T5A,P60]BuIA to test compound for rat alpha3beta4 nAChR expressed in Xenopus oocytes assessed as fold decrease in presence of acetylcholine by Voltage-clamp recording; assay type: cell-based; settings: Oocyte
[2] = target: Nicotinic acetylcholine receptor alpha6/alpha3/beta4 (Rattus norvegicus) (UniProt P04757+P12392+P43143); test: Potency index, ratio of [T5A,P60]BuIA to test compound for rat alpha6/alpha3beta4 nAChR expressed in Xenopus Oocytes assessed as fold increase in presence of acetylcholine by Voltage-clamp recording; assay type: cell-based; settings: Oocyte

CC(C)[C@H](NC(=O)[C@@H]1CCCN1C(=O)[C@H](CC(N)=O)NC(=O)[C@H](C)NC(=O)[C@H](CS)NC(=O)[C@H](CS)NC(=O)[C@@H](N)CCCNC(=N)N)C(=O)N[C@@H](CS)C(=O)N[C@@H](CC(N)=O)C(=O)NCC(=O)N[C@@H](CCCCN)C(=O)N[C@@H](Cc1cnc[nH]1)C(=O)N[C@@H](CS)C(N)=O (H-RCCANPVCNGKHC-NH2)
fold change (FC) [1]: 10
fold change (FC) [2]: 3
